Patent US11046716B2, “Beta-lactamase inhibitors” (priority 2015, dated 2021)

Tests used:
SHV-5 = biological target: T1, SHV-5 (Klebsiella pneumoniae, UniProt P0A3M1); assay: β-lactamase enzyme inhibition assay, SHV-5 (cefotaxime substrate); assay type: biochemical
T1 construct: made in house; host or cells: E. coli BL21(DE3)
Summary of the method: (§1)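 Native untagged β-lactamases were expressed in E. coli BL21(DE3), then purified by cation exchange and gel filtration. Enzyme was preincubated with inhibitor for 15 min at 37 °C before substrate was added. Imipenem (A300) served KPC-2 and cefotaxime (A260) served SHV-5. IC50 was taken from initial hydrolysis rates relative to no-inhibitor controls.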

KPC-2 = biological target: T2, KPC-2 (Klebsiella pneumoniae, UniProt Q9F663); assay: β-lactamase enzyme inhibition assay, KPC-2 (imipenem substrate); assay type: biochemical; conditions: Class A; imipenem substrate, 300 nm; read-out: KPC-2
T2 construct: made in house; host or cells: E. coli BL21(DE3)
T2 sequence (Q9F663 25-293, looked up): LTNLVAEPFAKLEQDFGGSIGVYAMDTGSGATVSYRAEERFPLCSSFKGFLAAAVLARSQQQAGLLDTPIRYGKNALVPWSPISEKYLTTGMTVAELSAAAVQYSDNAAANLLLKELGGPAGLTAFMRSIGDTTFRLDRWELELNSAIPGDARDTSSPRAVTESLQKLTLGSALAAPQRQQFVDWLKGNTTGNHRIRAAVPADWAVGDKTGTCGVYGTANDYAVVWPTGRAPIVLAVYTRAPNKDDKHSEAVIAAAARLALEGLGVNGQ
Summary of the method: as §1

VIM-2 = biological target: T3, VIM-2 (Escherichia coli, UniProt Q5U7L7); assay: β-lactamase enzyme inhibition assay, VIM-2 (nitrocefin substrate); assay type: biochemical; conditions: Class B; nitrocefin substrate, 486 nm; read-out: VIM-2
T3 construct: made in house; host or cells: E. coli BL21(DE3)
Summary of the method: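 Nitrocefin hydrolysis, read at 486 nm over 10 min, served as the measure of VIM-2 activity. The enzyme had been incubated with compound for 15 min at 37 °C before 100 μM substrate was added, and IC50 values were fitted from percent inhibition of the initial rate.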

AmpC = biological target: T4, AmpC (Enterobacter cloacae, UniProt P05364); assay: β-lactamase enzyme inhibition assay, p99 AmpC (nitrocefin substrate); assay type: biochemical
T4 construct: made in house; host or cells: E. coli BL21(DE3)
T4 sequence (P05364 21-381): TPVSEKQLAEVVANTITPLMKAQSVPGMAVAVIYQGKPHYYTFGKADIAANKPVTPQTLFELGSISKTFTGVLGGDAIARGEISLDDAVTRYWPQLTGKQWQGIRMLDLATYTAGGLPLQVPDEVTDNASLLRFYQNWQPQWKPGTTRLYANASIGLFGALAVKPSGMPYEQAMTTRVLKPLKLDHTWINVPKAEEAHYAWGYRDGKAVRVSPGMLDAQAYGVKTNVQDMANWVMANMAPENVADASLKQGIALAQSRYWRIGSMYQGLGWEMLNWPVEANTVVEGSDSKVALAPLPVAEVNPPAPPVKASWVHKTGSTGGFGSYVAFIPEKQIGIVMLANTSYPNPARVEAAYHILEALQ
Summary of the method: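 Native untagged β-lactamases were expressed in E. coli BL21(DE3), then purified by cation exchange and gel filtration. Enzyme was preincubated with inhibitor for 15 min at 37 °C before substrate was added. IC50 was taken from initial hydrolysis rates relative to no-inhibitor controls.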

OXA-48 = OXA-48 (UniProt Q6XEC0); assay: β-lactamase enzyme inhibition assay, Class D oxacillinase; assay type: biochemical; conditions: read-out: OXA-48
[1] = system: E. coli expressing the Class A Extended Spectrum Beta-Lactamase (ESBL) CTX-M-15; assay: Broth microdilution MIC assay with ceftazidime, E. coli CTX-M-15; assay type: cell-based; conditions: Fixed CAZ (ceftazidime) 4 μg/mL; E. coli ESBL4 CTX-M-15
Summary of the method: (§2)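 Visual MIC readout of the test compound after 16-20 hours at 37° C, measured in the presence of a constant 4 μg/ml β-lactam. Compound concentrations spanned 16 to 0.125 μg/mL in 2-fold steps in cation-adjusted Mueller Hinton broth.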

[2] = system: E. cloacae expressing the Class C P99; assay: Broth microdilution MIC assay with ceftazidime, E. cloacae P99; assay type: cell-based; conditions: Fixed CAZ (ceftazidime) 4 μg/mL; E. cl. 144200 p99 AmpC
Summary of the method: as §2

[3] = system: K. pneumoniae expressing the Class A carbapenemase KPC-2; assay: Broth microdilution MIC assay with meropenem, K. pneumoniae KPC-2; assay type: cell-based; conditions: Fixed Mero (meropenem) 4 μg/mL; K. p. 156319 KPC-3
Summary of the method: as §2

[4] = system: P. aeruginosa expressing the Class B carbapenemase VIM-2; assay: Broth microdilution MIC assay with meropenem, P. aeruginosa VIM-2; assay type: cell-based; conditions: Fixed Mero (meropenem) 4 μg/mL; P. aerug. 2775 VIM-2
Summary of the method: as §2

[5] = system: K. pneumoniae expressing the class A carbapenemase KPC-2 and the class B carbapenemase VIM-4; assay: Broth microdilution MIC assay with meropenem, K. pneumoniae KPC-2 and VIM-4; assay type: cell-based; conditions: Fixed Mero (meropenem) 4 μg/mL; K. p. A-1797 KPC-2 VIM-4
Summary of the method: as §2

[6] = system: K. pneumoniae producing the Class D carbapenemase OXA-48; assay: Broth microdilution MIC assay with meropenem, K. pneumoniae OXA-48; assay type: cell-based; conditions: Fixed Mero (meropenem) 4 μg/mL; K. p. 11978 OXA-48
Summary of the method: as §2

T1 sequence (P0A3M1 22-286): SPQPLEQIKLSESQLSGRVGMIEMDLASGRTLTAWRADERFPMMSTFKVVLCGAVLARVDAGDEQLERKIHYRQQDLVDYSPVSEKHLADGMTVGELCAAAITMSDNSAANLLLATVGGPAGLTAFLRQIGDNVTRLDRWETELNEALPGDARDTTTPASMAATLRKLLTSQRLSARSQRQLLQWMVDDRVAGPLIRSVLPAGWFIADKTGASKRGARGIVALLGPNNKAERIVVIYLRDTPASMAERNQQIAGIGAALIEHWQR

| Compound | IC50 (SHV-5) [µM] | IC50 (KPC-2) [µM] | IC50 (VIM-2) [µM] | IC50 (AmpC) [µM] | IC50 (OXA-48) [µM] | MIC (μg/mL) of Exemplary Compounds in presence of fixed β-lactams: E. coli ESBL4 CTX-M-15 [1] | MIC (μg/mL) of Exemplary Compounds in presence of fixed β-lactams: E. cl. 144200 p99 AmpC [2] | MIC (μg/mL) of Exemplary Compounds in presence of fixed β-lactams: K. p. 156319 KPC-3 [3] | MIC (μg/mL) of Exemplary Compounds in presence of fixed β-lactams: P. aerug. 2775 VIM-2 [4] | MIC (μg/mL) of Exemplary Compounds in presence of fixed β-lactams: K. p. A-1797 KPC-2 VIM-4 [5] | MIC (μg/mL) of Exemplary Compounds in presence of fixed β-lactams: K. p. 11978 OXA-48 [6] |
| --- | --- | --- | --- | --- | --- | --- | --- | --- | --- | --- | --- |
| NCc1nnc(CC(=O)N[C@H]2Cc3cccc(C(=O)O)c3OB2O)[nH]1 [Example 23, (R)-3-(2-(5-(aminomethyl)-4H-1,2,4-triazol-3-yl)acetamido)-2-hydroxy-3,4-dihydro-2H-benzo[e][1,2]oxaborinine-8-carboxylic acid] | < 0.1 | < 0.1 | 0.1 to 1 | < 0.1 | 0.1 to 1 | C (C represents an MIC of <1 μg/mL) | C (C represents an MIC of <1 μg/mL) | C (C represents an MIC of <1 μg/mL) | C (C represents an MIC of <1 μg/mL) | B (B represents an MIC between 1 and 16 μg/mL inclusive) | B (B represents an MIC between 1 and 16 μg/mL inclusive) |
| N=C(N)NCc1nc(CC(=O)N[C@H]2Cc3cccc(C(=O)O)c3OB2O)cs1 [Example 24, (R)-3-(2-(2-(guanidinomethyl)thiazol-4-yl)acetamido)-2-hydroxy-3,4-dihydro-2H-benzo[e][1,2]oxaborinine-8-carboxylic acid] | < 0.1 | < 0.1 | 0.1 to 1 | < 0.1 | 0.1 to 1 | C (C represents an MIC of <1 μg/mL) | C (C represents an MIC of <1 μg/mL) | B (B represents an MIC between 1 and 16 μg/mL inclusive) | B (B represents an MIC between 1 and 16 μg/mL inclusive) | B (B represents an MIC between 1 and 16 μg/mL inclusive) | B (B represents an MIC between 1 and 16 μg/mL inclusive) |
| N#Cc1ncn(CC(=O)N[C@H]2Cc3cccc(C(=O)O)c3OB2O)n1 [Example 25, (R)-3-(2-(3-cyano-1H-1,2,4-triazol-1-yl)acetamido)-2-hydroxy-3,4-dihydro-2H-benzo[e][1,2]oxaborinine-8-carboxylic acid] | < 0.1 | < 0.1 | 0.1 to 1 | < 0.1 | 0.1 to 1 | C (C represents an MIC of <1 μg/mL) | C (C represents an MIC of <1 μg/mL) | B (B represents an MIC between 1 and 16 μg/mL inclusive) | B (B represents an MIC between 1 and 16 μg/mL inclusive) | A (A represents an MIC>16 μg/mL) | B (B represents an MIC between 1 and 16 μg/mL inclusive) |
| CNCc1cn(CC(=O)N[C@H]2Cc3cccc(C(=O)O)c3OB2O)nn1 [Example 26, (R)-2-hydroxy-3-(2-(4-((methylamino)methyl)-1H-1,2,3-triazol-1-yl)acetamido)-3,4-dihydro-2H-benzo[e][1,2]oxaborinine-8-carboxylic acid] | < 0.1 | 0.1 to 1 | < 0.1 | < 0.1 | 0.1 to 1 | C (C represents an MIC of <1 μg/mL) | C (C represents an MIC of <1 μg/mL) | B (B represents an MIC between 1 and 16 μg/mL inclusive) | B (B represents an MIC between 1 and 16 μg/mL inclusive) | C (C represents an MIC of <1 μg/mL) | B (B represents an MIC between 1 and 16 μg/mL inclusive) |
| CCN(CC)Cc1cn(CC(=O)N[C@H]2Cc3cccc(C(=O)O)c3OB2O)nn1 [Example 27, (R)-3-(2-(4-((diethylamino)methyl)-1H-1,2,3-triazol-1-yl)acetamido)-2-hydroxy-3,4-dihydro-2H-benzo[e][1,2]oxaborinine-8-carboxylic acid] | < 0.1 | < 0.1 | 0.1 to 1 | < 0.1 | 0.1 to 1 | C (C represents an MIC of <1 μg/mL) | C (C represents an MIC of <1 μg/mL) | B (B represents an MIC between 1 and 16 μg/mL inclusive) | B (B represents an MIC between 1 and 16 μg/mL inclusive) | B (B represents an MIC between 1 and 16 μg/mL inclusive) | B (B represents an MIC between 1 and 16 μg/mL inclusive) |
| O=C(Cn1cc(-c2cccs2)nn1)N[C@H]1Cc2cccc(C(=O)O)c2OB1O [Example 28, (R)-2-hydroxy-3-(2-(4-(thiophen-2-yl)-1H-1,2,3-triazol-1-yl)acetamido)-3,4-dihydro-2H-benzo[e][1,2]oxaborinine-8-carboxylic acid] | < 0.1 | < 0.1 | 0.1 to 1 | < 0.1 | 0.1 to 1 | C (C represents an MIC of <1 μg/mL) | C (C represents an MIC of <1 μg/mL) | B (B represents an MIC between 1 and 16 μg/mL inclusive) | B (B represents an MIC between 1 and 16 μg/mL inclusive) | A (A represents an MIC>16 μg/mL) | B (B represents an MIC between 1 and 16 μg/mL inclusive) |
| O=C(Cn1cc(-c2ccsc2)nn1)N[C@H]1Cc2cccc(C(=O)O)c2OB1O [Example 29, (R)-2-hydroxy-3-(2-(4-(thiophen-3-yl)-1H-1,2,3-triazol-1-yl)acetamido)-3,4-dihydro-2H-benzo[e][1,2]oxaborinine-8-carboxylic acid] | < 0.1 | < 0.1 | 0.1 to 1 | < 0.1 | 0.1 to 1 | C (C represents an MIC of <1 μg/mL) | C (C represents an MIC of <1 μg/mL) | B (B represents an MIC between 1 and 16 μg/mL inclusive) | B (B represents an MIC between 1 and 16 μg/mL inclusive) | B (B represents an MIC between 1 and 16 μg/mL inclusive) | B (B represents an MIC between 1 and 16 μg/mL inclusive) |
